Patent US20080194493A1, “Compositions Containing D-Carnosine” (priority 2004, published 2008)
Read-outs that look alike come from different tables or passages of the source.

Assays:
[1] = In vivo acute study, oral administration to Wistar rats; settings: 570 mg/kg
Description: (§1) An LC-MS/MS technique, validated in the 5-250 μM range, with detection limits of 50-20 picomoles, was set-up for this purpose.
(§2) In the in vivo acute studies, D- and L-carnosine were administered orally to Wistar rats (320 g±25 g) in the form of an aqueous solution at pH 7.4 (HCl) at the dose of 570 mg/kg.

[2] = Chronic treatment with the diet water in obese-Zucker rats: levels in plasma, urine and kidney
Description: The stability of L- and D-carnosine was compared in human plasma and serum in vitro, and in vivo in the rat (acute and chronic treatment). An LC-MS/MS technique, validated in the 5-250 μM range, with detection limits of 50-20 picomoles, was set-up for this purpose.
In chronic treatment, D- and L-camosine were administered with the diet water for 12 weeks at a dose of 30 mg/Kg. The experiment was carried out by using obese-Zucker rats (Charles River), an animal model of metabolic disorders, characterized by hyperinsulinemia, insulin resistance, obesity, hypertriglyceridemia, hypercholesterolemia, and by an increased formation of lipid derived carbonyls, protein carbonylation and appearance of carbonyl-dependent degenerative process such as nephropathy and vascular dysfunction, (Metz T O, Alderson N L, Chachich M E, Thorpe S R, Baynes J W, Pyridoxamine traps intermediates in lipid peroxidation reactions in vivo: evidence on the role of lipids in chemical modification of protein and development of diabetic complications, J Biol Chem. 2003 October 24;278(43):42012-9.

[3] = Crossing of the blood-brain barrier (stated, no method)
[4] = system: Zucker rats; assay: Pharmacological effects of chronic treatment in Zucker rats; type: in vivo
Source text: In particular, D-carnosine is effective for the treatment or prevention of disorders involving highly reactive and cytotoxic carbonyl derivatives (HNE, acrolein, malonyldialdehyde, glyoxal and dimethylglyoxal), especially Alzheimer's disease, atherosclerosis, disorders secondary to diabetes, age-associated tissue degeneration such as sarcopenia, and correlated disorders. Forms designed for topical administration are particularly indicated for the latter.

[5] = Reactivity towards HNE in homogeneous solution (aldehyde consumption by liquid chromatography); type: biochemical; settings: for inhibited HNE: HNE 10 μm in 10 mM phosphate buffer, molar ratios 1:10 and 1:20
Description: The almost identical reactivity compared with the L-form towards cytotoxic aldehydes, especially HNE and acrolein, was confirmed in a homogenous solution of HNE (10 μm) and acrolein (200 μm) in 10 mM phosphate buffer in molar ratios of the dipeptides amounting to 1:10 and 1:20. […]

[6] = In vitro stability in human plasma (LC-MS/MS); settings: after 6 hours incubation at 37° C., in the presence and absence of cadmium chloride
[7] = rat, in vivo, po, 570 mg/kg
Description: as §1, §2

[8] = molecular target: T1, carnosinases (Homo sapiens, UniProt Q96KN2); settings: cited from earlier work
T1 construct: host or cells: human serum
T1 sequence (Q96KN2 27-507 limits assumed): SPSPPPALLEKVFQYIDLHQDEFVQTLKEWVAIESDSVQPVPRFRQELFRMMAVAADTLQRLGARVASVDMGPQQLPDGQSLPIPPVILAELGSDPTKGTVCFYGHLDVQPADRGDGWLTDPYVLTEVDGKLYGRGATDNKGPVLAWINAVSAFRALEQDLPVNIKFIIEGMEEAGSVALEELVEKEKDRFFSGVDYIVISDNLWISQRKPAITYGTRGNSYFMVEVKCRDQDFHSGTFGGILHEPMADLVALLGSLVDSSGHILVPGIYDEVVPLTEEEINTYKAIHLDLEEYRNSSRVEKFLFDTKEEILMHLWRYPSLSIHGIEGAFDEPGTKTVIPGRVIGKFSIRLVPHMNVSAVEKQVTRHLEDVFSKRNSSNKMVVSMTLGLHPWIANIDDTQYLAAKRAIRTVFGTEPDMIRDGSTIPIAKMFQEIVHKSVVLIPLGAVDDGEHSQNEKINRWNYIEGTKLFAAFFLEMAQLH

[9] = 30 mg/Kg with the diet water for 12 weeks

Structure (SMILES)	Cmax reached at (time) [1] [h]	pharmacological levels maintained up to [1]	time to disappear from the administration [1] [h]	level in plasma [2, 9] [nM]	level in the kidney [2, 9] [nmoles/gr wt tissue]	level in urine [2, 9] [nmoles over 24 hrs]	increase of D-carnosine in respect to L-carnosine in plasma ([2]; 30 mg/Kg, 12 weeks) [fold]	increase of D-carnosine in respect to L-carnosine in urine as well as in the kidney ([2]; 30 mg/Kg, 12 weeks)	blood-brain barrier crossing [3]	pharmacological effects of chronic treatment [4]	activity towards HNE compared with aminoguanidine and methoxyamine [5]	reaction kinetics with HNE [5]	inhibited HNE ([5]; after 24 hours) [%]	inhibited HNE ([5]; after one hour's incubation) [%]	stability in human plasma [6]	time to disappear from the administration ([7]; Wistar) [h]	Cmax (time at which reached) [7] [min]	stability in human plasma	hydrolysis in human serum [8]
NCCC(=O)N[C@H](Cc1cnc[nH]1)C(=O)O [D-carnosine]	2	up to 8 hours	24	1240 ± 300	340.2±12.3	6688±345	6	more than a ten-fold increase	able to cross the blood-brain barrier	restrain: hypertriglyceridemia, hypercholesterolemia, hyperthenison, and carbonyl related disesases such as vascular dysfunction and nephropathy	far more active towards HNE than aminoguanidine and methoxyamine	first-order profile	98.3	49.2	remained unchanged				
NCCC(=O)N[C@@H](Cc1cnc[nH]1)C(=O)O [L-carnosine, β-alanyl-L-histidine]													96.4	44		≤ 2	60	undetectable	rapidly hydrolysed
